Experimental findings from patent US20100324102A1, “N-(3-PYRIDIN-2-YLPROPYL) BENZAMIDE DERIVATIVES AS FUNGICIDES” (BAYER CROPSCIENCE AG, priority 2006, published 2010) are described below.

Each structure is given as a SMILES string.

One assay has as its system Alternaria brassicae. As to the kind of experiment: In vivo test on Alternaria brassicae (leaf spot of crucifers). Conditions: radish plants (Pernot variety), preventive spray at 330 ppm, contamination after 24 hours, grading 6 to 7 days after contamination vs control plants. Here is the method:
(§1) The active ingredients tested are prepared by potter homogenisation in a mixture of acetone/tween/water. This suspension is then diluted with water to obtain the desired active material concentration.
Radish plants (Pernot variety), sown on a 50/50 peat soil-pozzolana substrate in starter cups and grown at 18-20° C., are treated at the cotyledon stage by spraying with the active ingredient prepared as described above.
Plants, used as controls, are treated with the mixture of acetone/tween/water not containing the active material.
After 24 hours, the plants are contaminated by spraying them with an aqueous suspension of Alternaria brassicae spores (40,000 spores per cm^3). The spores are collected from a 12 to 13 days-old culture.
The contaminated radish plants are incubated for 6-7 days at about 18° C., under a humid atmosphere.
Grading is carried out 6 to 7 days after the contamination, in comparison with the control plants.

For the next assay, the system named is Pyrenophora teres. As to the kind of experiment: In vivo test on Pyrenophora teres (barley net blotch). Conditions: barley plants (Express variety), preventive spray at 330 ppm, contamination after 24 hours, grading 12 days after contamination vs control plants. Here is the method: as §1
Barley plants (Express variety), sown on a 50/50 peat soil-pozzolana substrate in starter cups and grown at 12° C., are treated at the 1-leaf stage (10 cm tall) by spraying with the active ingredient prepared as described above. Plants, used as controls, are treated with the mixture of acetone/tween/water not containing the active material.
After 24 hours, the plants are contaminated by spraying them with an aqueous suspension of Pyrenophora teres spores (12,000 spores per ml). The spores are collected from a 12-day-old culture. The contaminated barley plants are incubated for 24 hours at about 20° C. and at 100% relative humidity, and then for 12 days at 80% relative humidity.
Grading is carried out 12 days after the contamination, in comparison with the control plants.

On to `O=C(NCCCc1ncc(C(F)(F)F)cc1Cl)c1ccccc1C(F)(F)F` [Compound 1, N-{3-[3-chloro-5-(trifluoromethyl)pyridin-2-yl]propyl}-2-(trifluoromethyl)benzamide], for which the protection result in the assay with Alternaria brassicae and with Pyrenophora teres was “at least 70%” each time.
